Test system: not given
Assay: not given
Conditions: 10 mg I.V.; cited from earlier work

SMILES | maximal serum concentration
CO[C@@]12[C@H](COC(N)=O)C3=C(C(=O)C(C)=C(N)C3=O)N1C[C@@H]1N[C@@H]12 [Mitomycin] | 0.52 mg/mL

Same assay, conditions: 20 mg I.V.; cited from earlier work

SMILES | maximal serum concentration
CO[C@@]12[C@H](COC(N)=O)C3=C(C(=O)C(C)=C(N)C3=O)N1C[C@@H]1N[C@@H]12 [Mitomycin] | 1.7 mg/mL

Same assay, conditions: 30 mg I.V.; cited from earlier work

SMILES | maximal serum concentration
CO[C@@]12[C@H](COC(N)=O)C3=C(C(=O)C(C)=C(N)C3=O)N1C[C@@H]1N[C@@H]12 [Mitomycin] | 2.4 mg/mL

Same assay, conditions: 30 mg bolus injection; cited from earlier work

SMILES | time required to reduce the serum concentration by about 50%
CO[C@@]12[C@H](COC(N)=O)C3=C(C(=O)C(C)=C(N)C3=O)N1C[C@@H]1N[C@@H]12 [Mitomycin] | 17 min

Same assay, conditions: in vivo; cited from earlier work

SMILES | dose excreted unchanged in the urine
CO[C@@]12[C@H](COC(N)=O)C3=C(C(=O)C(C)=C(N)C3=O)N1C[C@@H]1N[C@@H]12 [Mitomycin] | Approximately 10%

Test system: WiDr colon, res
Assay: Cytotoxicity in tumor cell culture, SRB assay
Assay type: cell-based
Conditions: Homo sapiens, WiDr; multidrug-resistant; read-out: IC50 against human mouse tumors, WiDr colon res
Excerpt: (§1) Relative potencies of the N-substituted 2-cyanoaziridine-1-carboxamides in a panel of tumor cell cultures are compared in Table 3. This panel includes the following lines of human tumor cells: sensitive and imexon-resistant lines of multiple myeloma (Matsuoka et al., 1967); ovarian carcinoma resistant to standard drugs (Hamilton et al., 1984); melanoma with a slow growth fraction (Girard et al., 1973); breast carcinoma including sensitive, doxorubicin-resistant (P-glycoprotein-positive) (Taylor et al., 1991), and mitoxantrone-resistant (P-glycoprotein-negative) (Futscher et al., 1994) lines; sensitive and multidrug-resistant colon carcinoma (Noguchi et al., 1979; Dalton et al., 1988); and multidrug-resistant lung carcinoma (P-glycoprotein-negative) (Girard et al., 1973). It also has sensitive (Goldin et al., 1961) and multidrug-resistant (P-glycoprotein-positive) (Salmon and Hersh, 1994) murine L1210 leukemia cells.

SMILES | IC50
CNC(=O)N1CC1C#N (stereo not drawn) [Compound 6, 2-Cyanoaziridine-1-(N-methyl) carboxainide] | 23 µM

Same assay, conditions: multidrug-resistant; read-out: IC50 against human mouse tumors, WiDr colon res

SMILES | IC50
N#CC1CN1C(=O)NC1CCCCC1 (stereo not drawn) [Compound 10, 2-Cyanoaziridine-1-(N-cyclohexyl) carboxamide] | 12 µM

Test system: WiDr colon, Sens
Assay: Cytotoxicity in tumor cell culture, SRB assay
Assay type: cell-based
Conditions: Homo sapiens, WiDr; read-out: IC50 against human mouse tumors, WiDr colon Sens
Excerpt: as §1

SMILES | IC50
CNC(=O)N1CC1C#N (stereo not drawn) [Compound 6, 2-Cyanoaziridine-1-(N-methyl) carboxainide] | 21 µM

Same assay, conditions: read-out: IC50 against human mouse tumors, WiDr colon Sens

SMILES | IC50
N#CC1CN1C(=O)NC1CCCCC1 (stereo not drawn) [Compound 10, 2-Cyanoaziridine-1-(N-cyclohexyl) carboxamide] | 2.4 µM

Test system: 8226 myeloma, Res (imexon-resistant)
Assay: Cytotoxicity in tumor cell culture, SRB assay
Assay type: cell-based
Conditions: Homo sapiens; line made resistant to imexon; read-out: IC50 against human mouse tumors, 8226 myeloma Res
Excerpt: as §1

SMILES | IC50
CNC(=O)N1CC1C#N (stereo not drawn) [Compound 6, 2-Cyanoaziridine-1-(N-methyl) carboxainide] | 26 µM

Same assay, conditions: line made resistant to imexon; read-out: IC50 against human mouse tumors, 8226 myeloma Res

SMILES | IC50
N#CC1CN1C(=O)NC1CCCCC1 (stereo not drawn) [Compound 10, 2-Cyanoaziridine-1-(N-cyclohexyl) carboxamide] | 98 µM

Test system: not given
Assay: not given
Conditions: not given

melting point | SMILES
98 to 100 °C | CNC(=O)N1CC1C#N (stereo not drawn) [Compound 6, 2-Cyanoaziridine-1-(N-methyl) carboxainide]

Test system: L1210 leukemia, Mdr
Assay: Cytotoxicity in tumor cell culture, MTT assay
Assay type: cell-based, murine
Conditions: MTT assay, multidrug-resistant; read-out: IC50 against human mouse tumors, L1210 leukemia Mdr
Excerpt: as §1

SMILES | IC50
N#CC1CN1C(=O)NC1CCCCC1 (stereo not drawn) [Compound 10, 2-Cyanoaziridine-1-(N-cyclohexyl) carboxamide] | 16 µM

Same assay, conditions: Mus musculus, L1210; MTT assay, multidrug-resistant; read-out: IC50 against human mouse tumors, L1210 leukemia Mdr

SMILES | IC50
CNC(=O)N1CC1C#N (stereo not drawn) [Compound 6, 2-Cyanoaziridine-1-(N-methyl) carboxainide] | 21 µM

Test system: L1210 leukemia, Sens
Assay: Cytotoxicity in tumor cell culture, MTT assay
Assay type: cell-based, murine
Conditions: MTT assay; read-out: IC50 against human mouse tumors, L1210 leukemia Sens
Excerpt: as §1

SMILES | IC50
N#CC1CN1C(=O)NC1CCCCC1 (stereo not drawn) [Compound 10, 2-Cyanoaziridine-1-(N-cyclohexyl) carboxamide] | 7.4 µM

Same assay, conditions: Mus musculus, L1210; MTT assay; read-out: IC50 against human mouse tumors, L1210 leukemia Sens

SMILES | IC50
CNC(=O)N1CC1C#N (stereo not drawn) [Compound 6, 2-Cyanoaziridine-1-(N-methyl) carboxainide] | 8.7 µM

Test system: MCF7 breast, Dox (doxorubicin-resistant)
Assay: Cytotoxicity in tumor cell culture, SRB assay
Assay type: cell-based, human
Conditions: Homo sapiens, MCF7; doxorubicin-resistant; read-out: IC50 against human mouse tumors, MCF7 breast Dox
Excerpt: as §1

SMILES | IC50
CNC(=O)N1CC1C#N (stereo not drawn) [Compound 6, 2-Cyanoaziridine-1-(N-methyl) carboxainide] | 17 µM

Same assay, conditions: doxorubicin-resistant; read-out: IC50 against human mouse tumors, MCF7 breast Dox

SMILES | IC50
N#CC1CN1C(=O)NC1CCCCC1 (stereo not drawn) [Compound 10, 2-Cyanoaziridine-1-(N-cyclohexyl) carboxamide] | 8.9 µM

Test system: MCF7 breast, mitox (mitoxantrone-resistant)
Assay: Cytotoxicity in tumor cell culture, SRB assay
Assay type: cell-based, human
Conditions: Homo sapiens, MCF7; mitoxantrone-resistant; read-out: IC50 against human mouse tumors, MCF7 breast mitox
Excerpt: as §1

SMILES | IC50
CNC(=O)N1CC1C#N (stereo not drawn) [Compound 6, 2-Cyanoaziridine-1-(N-methyl) carboxainide] | 18 µM

Same assay, conditions: mitoxantrone-resistant; read-out: IC50 against human mouse tumors, MCF7 breast mitox

SMILES | IC50
N#CC1CN1C(=O)NC1CCCCC1 (stereo not drawn) [Compound 10, 2-Cyanoaziridine-1-(N-cyclohexyl) carboxamide] | 9.8 µM

Test system: A-549 lung
Assay: Cytotoxicity in tumor cell culture, SRB assay
Assay type: cell-based, human
Conditions: Homo sapiens, A549; read-out: IC50 against human mouse tumors, A-549 lung
Excerpt: as §1

SMILES | IC50
CNC(=O)N1CC1C#N (stereo not drawn) [Compound 6, 2-Cyanoaziridine-1-(N-methyl) carboxainide] | 22 µM

Same assay, conditions: read-out: IC50 against human mouse tumors, A-549 lung

SMILES | IC50
N#CC1CN1C(=O)NC1CCCCC1 (stereo not drawn) [Compound 10, 2-Cyanoaziridine-1-(N-cyclohexyl) carboxamide] | 10 µM

Test system: OVCAR3 ovarian
Assay: Cytotoxicity in tumor cell culture, SRB assay
Assay type: cell-based, human
Conditions: Homo sapiens, OVCAR-3; read-out: IC50 against human mouse tumors, OVCAR3 ovarian
Excerpt: as §1

SMILES | IC50
CNC(=O)N1CC1C#N (stereo not drawn) [Compound 6, 2-Cyanoaziridine-1-(N-methyl) carboxainide] | 14 µM

Same assay, conditions: read-out: IC50 against human mouse tumors, OVCAR3 ovarian

SMILES | IC50
N#CC1CN1C(=O)NC1CCCCC1 (stereo not drawn) [Compound 10, 2-Cyanoaziridine-1-(N-cyclohexyl) carboxamide] | 31 µM

Test system: A375 melan
Assay: Cytotoxicity in tumor cell culture, SRB assay
Assay type: cell-based, human
Conditions: Homo sapiens, A-375; read-out: IC50 against human mouse tumors, A375 melan
Excerpt: as §1

SMILES | IC50
CNC(=O)N1CC1C#N (stereo not drawn) [Compound 6, 2-Cyanoaziridine-1-(N-methyl) carboxainide] | 17 µM

Same assay, conditions: read-out: IC50 against human mouse tumors, A375 melan

SMILES | IC50
N#CC1CN1C(=O)NC1CCCCC1 (stereo not drawn) [Compound 10, 2-Cyanoaziridine-1-(N-cyclohexyl) carboxamide] | 35 µM

Test system: MCF7 breast, Sens
Assay: Cytotoxicity in tumor cell culture, SRB assay
Assay type: cell-based, human
Conditions: Homo sapiens, MCF7; read-out: IC50 against human mouse tumors, MCF7 breast Sens
Excerpt: as §1

SMILES | IC50
CNC(=O)N1CC1C#N (stereo not drawn) [Compound 6, 2-Cyanoaziridine-1-(N-methyl) carboxainide] | 27 µM

Same assay, conditions: read-out: IC50 against human mouse tumors, MCF7 breast Sens

SMILES | IC50
N#CC1CN1C(=O)NC1CCCCC1 (stereo not drawn) [Compound 10, 2-Cyanoaziridine-1-(N-cyclohexyl) carboxamide] | 13 µM

Test system: 8226 myeloma, Sens (drug-sensitive)
Assay: Cytotoxicity in tumor cell culture, SRB assay
Assay type: cell-based, human
Conditions: Homo sapiens; against sensitive myeloma; read-out: Log(1/C) (converted)
Excerpt: as §1

SMILES | IC50
CNC(=O)N1CC1C#N (stereo not drawn) [Compound 6, 2-Cyanoaziridine-1-(N-methyl) carboxainide] | 25.7 µM

Same assay, conditions: Homo sapiens; against sensitive myeloma; values repeated from Table 3 (μM there); read-out: IC50

SMILES | IC50
CNC(=O)N1CC1C#N (stereo not drawn) [Compound 6, 2-Cyanoaziridine-1-(N-methyl) carboxainide] | 26 µM

Same assay, conditions: Homo sapiens; drug-sensitive line; read-out: IC50 against human mouse tumors, 8226 myeloma Sens

SMILES | IC50
CNC(=O)N1CC1C#N (stereo not drawn) [Compound 6, 2-Cyanoaziridine-1-(N-methyl) carboxainide] | 26 µM

Same assay, conditions: against sensitive myeloma

SMILES | Log(1/C)
N#CC1CN1C(=O)NC1CCCCC1 (stereo not drawn) [Compound 10, 2-Cyanoaziridine-1-(N-cyclohexyl) carboxamide] | 4.44

Same assay, conditions: against sensitive myeloma; values repeated from Table 3 (μM there); read-out: IC50

SMILES | IC50
N#CC1CN1C(=O)NC1CCCCC1 (stereo not drawn) [Compound 10, 2-Cyanoaziridine-1-(N-cyclohexyl) carboxamide] | 36 µM

Same assay, conditions: drug-sensitive line; read-out: IC50 against human mouse tumors, 8226 myeloma Sens

SMILES | IC50
N#CC1CN1C(=O)NC1CCCCC1 (stereo not drawn) [Compound 10, 2-Cyanoaziridine-1-(N-cyclohexyl) carboxamide] | 36 µM

Test system: not given
Assay: not given
Conditions: substituent constant, from Hansch and Leo or calculated using Clog P software; cited from earlier work

SMILES | π
CNC(=O)N1CC1C#N (stereo not drawn) [Compound 6, 2-Cyanoaziridine-1-(N-methyl) carboxainide] | 0.50
N#CC1CN1C(=O)NC1CCCCC1 (stereo not drawn) [Compound 10, 2-Cyanoaziridine-1-(N-cyclohexyl) carboxamide] | 2.51

— patent publication US20030129222A1, “Liposomal imexon” (priority 2000, published 2003)
